Results as given in EP4725507A1, “POLYPEPTIDE CONJUGATE, PHARMACEUTICAL COMPOSITION CONTAINING POLYPEPTIDE CONJUGATE AND USE THEREOF” (Nanjing Anji Biotechnology Co., Ltd., priority 2023, dated 2025).
Peptide text beside a SMILES is read from it. * marks the point of attachment. Paclitaxel(2'-O-succinyl) = CC(=O)O[C@H]1C(=O)[C@@]2(C)[C@H]([C@H](OC(=O)c3ccccc3)[C@]3(O)C[C@H](OC(=O)[C@H](OC(=O)CCC(=O)*)[C@@H](NC(=O)c4ccccc4)c4ccccc4)C(C)=C1C3(C)C)[C@]1(OC(C)=O)CO[C@@H]1C[C@@H]2O

Legend:
[1] = system: A549 cells; test: Tumor vertical migration (Transwell chambers); format: cell-based; details: 48 h
Method: A549 cells in the logarithmic growth phase were taken, digested with trypsin to prepare a cell suspension, and 100 µL of the cell suspension was inoculated into Transwell chambers with 3.5×10^4 cells per well. A blank group, a positive drug group, and an administration group were set up. […] 600 µL of F-12K medium containing 10% FBS was added to the 24-well plate holding the chambers. After incubation in a 37°C, 5% CO2 incubator for 48 h, the cells were fixed with methanol for 30 min and stained with crystal violet for 10 min. After staining, the cell migration status was photographed under a microscope (model: CKX31SF, manufacturer: OLYMPUS CORPORATION) at a magnification of 100×. Meanwhile, Photoshop 20.0.1 was used for quantitative calculation of the number of migrated tumor cells, and the results were expressed as mean ± SD (n = 3).

[2] = system: SiHa (human cervical cancer cells); test: Tumor cell proliferation inhibition (CCK8); format: cell-based; details: IC50 of free drug / IC50 of polypeptide conjugate
Text: (§1) Human highly metastatic hepatocellular carcinoma cells HCCLM3, human highly metastatic gastric cancer cells MKN45, human gastric cancer cells BGC-823 and MGC-803, non-small cell lung cancer cells A549, human pancreatic cancer cells ASPC-1, human colon cancer cells LoVo, human ovarian cancer cells A2780, human cervical cancer cells SiHa, human malignant melanoma cells SK-mel-2 and M14, human osteosarcoma cells Saos-2, human bladder transitional cell carcinoma cells T24, human brain glioblastoma cells U87-MG, human lymphoma cells Raji, and human epidermal cancer cells A431 were selected for the experiment. Among them, HCCLM3 cells, MKN45 cells, BGC-823 cells, MGC-803 cells, A431 cells and A549 cells were provided by Nanjing Anji Biotechnology Co., Ltd., and the other cells were provided by Nanjing Ouji Pharmaceutical Technology Service Co., Ltd.
(§2) The aforementioned tumor cells were preserved in a medium containing 10% fetal bovine serum and 1% penicillin-streptomycin, and incubated at 37°C with 5% CO2 and 95% humidity. The aforementioned tumor cells were cultured in T75 flasks with an experimental cell density of 80%. The aforementioned tumor cell lines were mycoplasma-negative.
(§3) Tumor cells in the logarithmic growth phase were taken for the experiment. The cells were digested, counted, and prepared into a cell suspension with a concentration of 1×10^5 cells/mL, which was then inoculated into a 96-well plate (100 µL per well). The 96-well plate was incubated in a 37°C, 5% CO2 incubator for 24 hours. […] After incubating the plate in the incubator for 72 h, the cell morphology of each group was observed under a microscope. Then, 10 µL of CCK8 solution (Nanjing Enjing Biotechnology Co., Ltd.) was added to each well, and the plate was further incubated in the cell incubator for 4 h. After incubation, the absorbance was measured at 450 nm, and the tumor cell proliferation inhibition rate was calculated. The efficiency ratio was the ratio of the IC50 value of the free drug to that of the polypeptide conjugate. Table 1 Tumor cell proliferation inhibition rates of polypeptide conjugates

[3] = system: LoVo (human colon cancer cells); test: Tumor cell proliferation inhibition (CCK8); format: cell-based; details: IC50 of free drug / IC50 of polypeptide conjugate
Text: as §1, §2, §3

[4] = system: M14 (human malignant melanoma cells); test: Tumor cell proliferation inhibition (CCK8); format: cell-based; details: IC50 of free drug / IC50 of polypeptide conjugate
Text: as §1, §2, §3

[5] = system: SK-mel-2 (human malignant melanoma cells); test: Tumor cell proliferation inhibition (CCK8); format: cell-based; details: IC50 of free drug / IC50 of polypeptide conjugate
Text: as §1, §2, §3

[6] = system: ASPC-1 (human pancreatic cancer cells); test: Tumor cell proliferation inhibition (CCK8); format: cell-based; details: IC50 of free drug / IC50 of polypeptide conjugate
Text: as §1, §2, §3

[7] = system: U87-MG (human brain glioblastoma cells); test: Tumor cell proliferation inhibition (CCK8); format: cell-based; details: IC50 of free drug / IC50 of polypeptide conjugate
Text: as §1, §2, §3

[8] = system: gastric cancer MKN45 xenograft tumors; test: In vivo tumor-inhibitory activity of DOC-AI, MKN45 xenograft; design: species or system BALB/c nude mice; Tumor Weight: unit not given here; details: 6.20 µmol/Kg
Method: Non-small cell lung cancer A549 cells and human gastric cancer MKN-45 cells were preserved in F12-K medium containing 10% fetal bovine serum and 1% penicillin + streptomycin, and incubated at 37°C with 5% CO2 and 95% humidity. The aforementioned cells were cultured in T175 flasks with an experimental cell density of 80%. The aforementioned cell lines were mycoplasma-negative. Both A549 cells and MKN-45 cells were provided by Nanjing Anji Biotechnology Co., Ltd.
Gastric cancer MKN45 cells in the vigorous growth stage were taken and inoculated subcutaneously into the right axilla of BALB/c nude mice (Hangzhou Ziyuan Laboratory Animal Technology Co., Ltd.) under sterile conditions, with a cell inoculation amount of 1×10^7. The diameter of transplanted tumors in nude mice was measured with a vernier caliper. When the tumors grew to approximately 50 mm^3, 18 tumor-bearing nude mice with good growth status and relatively uniform tumor size were selected and divided into 3 groups, with 6 mice in each group. The administration frequency was once every 3 days, and this cycle was repeated until day 21. The anti-tumor effect in the nude mice was dynamically observed by measuring the tumor diameter. The tumor diameter was measured every other day, and the body weight of the nude mice was weighed simultaneously during the measurement of the tumor diameter. After 21 days of administration, the nude mice were euthanized, the tumor inhibition rate (%) was calculated, and the tumor masses were peeled off and weighed. Table 7 Results of Detection of In Vivo Tumor-Inhibitory Activity of DOC-AI

[9] = system: A2780 (human ovarian cancer cells); test: Tumor cell proliferation inhibition (CCK8); format: cell-based; details: IC50 of free drug / IC50 of polypeptide conjugate
Text: as §1, §2, §3

[10] = system: T24 (human bladder transitional cell carcinoma cells); test: Tumor cell proliferation inhibition (CCK8); format: cell-based; details: IC50 of free drug / IC50 of polypeptide conjugate
Text: as §1, §2, §3

[11] = system: Raji (human lymphoma cells); test: Tumor cell proliferation inhibition (CCK8); format: cell-based; details: IC50 of free drug / IC50 of polypeptide conjugate
Text: as §1, §2, §3

[12] = system: Saos-2 (human osteosarcoma cells); test: Tumor cell proliferation inhibition (CCK8); format: cell-based; details: IC50 of free drug / IC50 of polypeptide conjugate
Text: as §1, §2, §3

[13] = MKN45 xenograft, once every 3 days until day 21

SMILES | vertical migration rate ([1]; 10 nM DOC-AI compared with 10 nM DOC) | vertical migration of A549 cells ([1]; 1 µM, 100 nM, 10 nM, 1 nM, compared with the blank group) | effective concentration (vertical migration) ([1]; A549, lowest effective concentration) | Efficiency Ratios [2] | Efficiency Ratios [3] | Efficiency Ratios [4] | Efficiency Ratios [5] | Efficiency Ratios [6] | Efficiency Ratios [7] | body weight changes ([8]; MKN45 xenograft nude mice, during the administration period) | Tumor Inhibition Rate [8, 13] | Tumor Weight [8, 13] | Final Tumor Volume ([8]; MKN45 xenograft, once every 3 days until day 21, in mm³ (unit assumed)) | Efficiency Ratios [9] | Efficiency Ratios [10] | Efficiency Ratios [11] | Efficiency Ratios [12]
CC(=O)O[C@@]12CO[C@@H]1C[C@H](O)[C@@]1(C)C(=O)[C@H](O)C3=C(C)[C@@H](OC(=O)[C@H](OC(=O)CCC(=O)N[C@@H](CCCNC(=N)N)C(=O)N[C@@H](CO)C(=O)N4CCC[C@H]4C(=O)N[C@@H](Cc4ccc(O)cc4)C(=O)N[C@@H](C)C(=O)N[C@@H](CC(N)=O)C(=O)N[C@@H](CO)C(=O)O)[C@@H](NC(=O)OC(C)(C)C)c4ccccc4)C[C@@](O)([C@@H](OC(=O)c4ccccc4)[C@H]21)C3(C)C [DOC-AI] | lower than that of 10 nM DOC | effectively inhibited the vertical migration of A549 cells in a concentration-dependent manner | 1 nM | 3.90 | 1.18 | 1.21 | 1.00 | 2.31 | 2.05 | no significant weight loss was observed | 84.25±9.15% | 204.34±54.48 | 191.31±54.48 |  |  |  | 
CC(=O)O[C@H]1C(=O)[C@@]2(C)[C@H]([C@H](OC(=O)c3ccccc3)[C@]3(O)C[C@H](OC(=O)[C@H](OC(=O)CCC(=O)N[C@@H](CCCNC(=N)N)C(=O)N[C@@H](CO)C(=O)N4CCC[C@H]4C(=O)N[C@@H](Cc4ccc(O)cc4)C(=O)N[C@@H](C)C(=O)N[C@@H](CC(N)=O)C(=O)N[C@@H](CO)C(=O)O)[C@@H](NC(=O)c4ccccc4)c4ccccc4)C(C)=C1C3(C)C)[C@]1(OC(C)=O)CO[C@@H]1C[C@@H]2O [PTX-AI] ({Paclitaxel(2'-O-succinyl)}-RSPYANS-OH) |  |  |  |  |  |  |  |  |  |  |  |  |  | 1.11 | 1.78 | 1.09 | 1.47
